Results as given in patent publication US9254262B2, “Dosage and formulation” (Almirall, S.A., priority 2008, dated 2016).

Test system: Patients with moderate to severe stable COPD
Experiment: 4-week randomized once-daily inhaled treatment in COPD patients, spirometry (FEV1) and tolerability
Format: in vivo, human
Method: Methods: Patients with moderate to severe stable COPD were randomized to receive double-blind, once-daily treatment with aclidinium (25, 50, 100, 200, or 400 μg), placebo, or open-label tiotropium 18 μg for 4 weeks. Spirometric measurements were performed at 22-24 h after the first dose and then at weekly intervals, and from 0.5-6 h post-administration on Day 1 and at Week 4 (Day 29).
Results: The ITT population included 460 patients.
Mean change from baseline in trough FEV1 on Day 29

[1] = 25-400 μg once daily for 4 weeks, COPD patients

O=C(O[C@H]1C[N+]2(CCCOc3ccccc3)CCC1CC2)C(O)(c1cccs1)c1cccs1.[Br-] [Aclidinium, 3(R)-(2-hydroxy-2,2-dithien-2-ylacetoxy)-1-(3-phenoxypropyl)-1-azoniabicyclo[2.2.2]octane bromide]
Effect on ECG, laboratory parameters or adverse events [1]: no dose-dependent effect | Tolerability [1]: well tolerated | Effect on trough FEV1 on Day 29 (dose dependence) (25-400 μg once daily, ITT population 460 patients): dose-dependently increased | Bronchodilatory effect compared with open-label tiotropium 18 μg (aclidinium 200 and 400 μg): comparable bronchodilatory effects | Bronchodilatory effect during the first 6 h post-dose on Day 29 versus Day 1 (all doses): comparable to that on Day 1 | Duration of bronchodilation (once-daily dosing, COPD patients): sustained bronchodilation over 24 h

C[N+]1(C)[C@@H]2C[C@@H](OC(=O)C(O)(c3cccs3)c3cccs3)C[C@H]1[C@@H]1O[C@@H]12 [Tiotropium, reference compound]
Mean change from baseline in trough FEV1 on Day 29 (Mean Δ) (tiotropium 18 μg once daily, open-label, 4 weeks, COPD patients, *p < 0.05 vs placebo): 161* ml
